Reference: patent publication US10143638B2, “Method of treating skin with ingenol mebutate” (LEO Laboratories Limited, priority 2009, dated 2018)

How the values were obtained:
dermal fibroblasts [1] = assay: De novo hyaluronan molecular weight ([3H]-glucosamine incorporation, gel filtration); assay type: cell-based, human; settings: PEP005 0.01-10 μg/ml, presence or absence of TGF-β1, day 1 and day 3
Description: Hyaluronan molecular weight sizing, following dermal fibroblast synthesis, was performed as previously described (Meran et al, 2008; Simpson et al, 2009). Dermal fibroblasts were seeded in 6-well tissue culture plates, in PEP005-free, Fibroblast-Serum Containing Medium (2 ml), at 1.5×10^5 cells/well. Dermal fibroblasts were maintained at 37° C., in a 5% CO2/95% air atmosphere, for 48 h, prior to washing in phosphate buffered saline (PBS, 2×2 ml) and maintenance in serum-free, Fibroblast-Serum Containing Medium (2 ml), for a further 48 h. At 48 h, the serum-free, Fibroblast-Serum Containing Medium was replenished with serum-free, Fibroblast-Serum Containing Medium (2 ml), containing 0 μg/ml, 0.01 μg/ml, 0.1 μg/ml, 1 μg/ml, 10 μg/ml or 100 μg/ml PEP005, +/−TGF-β1 (10 ng/ml) (three culture wells per PEP005 concentration), in addition to [^3H]-glucosamine (20 μCi/ml, G.E. Healthcare). The dermal fibroblasts were maintained at 37° C., in a 5% CO2/95% air atmosphere, for 24 h or 72 h. […]
Aliquots (20 μl×3) of each Extract fraction were transferred into scintillation vials, followed by the addition of 70% ethanol (600 μl) and liquid scintillant (4 ml). Scintillation vials were vortexed and [^3H]-incorporation quantified using a Packard Tri-Carb 1900CA Liquid Scintillation Analyzer (Perkin Elmer), with values obtained being expressed as disintegrations per minute (dpm). […]

dermal fibroblasts [2] = assay: Hyaluronan synthesis by dermal fibroblasts (Hyaluronic Acid Quantitative Test Kit); assay type: cell-based, human
Description: A normal adult skin biopsy (6 mm) was obtained (n=1), with informed consent, from an individual attending the Oral Surgery Clinic, School of Dentistry, Wales College of Medicine, Cardiff. Following the application of a local anaesthetic, the dermal biopsy was collected and adult dermal fibroblast cultures established by single cell suspension technique, following enzymic degradation of the specimen. This technique has previously been reliably used to establish viable primary cultures of both oral and dermal fibroblasts in vitro (Cook et al, 2000; Stephens et al, 2001; 2003). Dermal fibroblasts were cultured in Fibroblast-Serum Containing Medium, containing Dulbecco's Modified Eagle's Medium (DMEM), supplemented with L-glutamine (2 mM), antibiotics (100 U/ml) penicillin G sodium, […] streptomycin sulphate and 0.25 μg/ml amphotericin B) and 10% foetal calf serum (all purchased from Invitrogen Ltd., Paisley, U.K.). Dermal fibroblast cultures were maintained at 37° C., in a 5% CO2/95% air atmosphere, with the culture medium being changed every 2-3 days. Dermal fibroblasts were used between) passage 7-17, for all experiments.
Following trypsinization, dermal fibroblasts were seeded in 24-well tissue culture plates in PEP005-free, Fibroblast-Serum Containing Medium (1 ml), at a cell density of 2.5×10^4 cell/well. Dermal fibroblasts were maintained at 37° C., in a 5% CO2/95% air atmosphere, for 48 h, prior to maintenance in serum-free, Fibroblast-Serum Containing Medium (1 ml), for a further 48 h. At this stage, the serum-free, culture medium was replaced with Fibroblast-Serum Containing Medium (600 μl), containing 0 μg/ml, 0.01 μg/ml, 0.1 μg/ml, 1 μg/ml, 10 μg/ml or 100 μg/ml PEP005, +/−TGF-β1 (10 ng/ml) (three culture wells per PEP005 concentration). A control was also established, consisting of cells in serum-free, Fibroblast-Serum Containing Medium, containing 1% DMSO. The dermal fibroblasts were maintained at 37° C., in a 5% CO2/95% air atmosphere, for 24 h or 72 h, prior to culture medium removal. Hyaluronan synthesis in the collected culture media was quantified, using a Hyaluronic Acid Quantitative Test Kit (Corgenix U.K. Ltd., Cambridgeshire, U.K.), which utilizes a naturally occurring bovine binding protein to hyaluronan. Supernatants were assayed, as per manufacturer's instructions, and optical density measured using a spectrophotometer at 450 nm. Hyaluronan concentrations were determined by comparing the absorbance of the sample against a reference curve prepared from the reagent blank and standards. Each experiment was performed on three separate occasions.

C/C=C(/C)C(=O)O[C@H]1C(C)=C[C@]23C(=O)[C@@H](C=C(CO)[C@@H](O)[C@]12O)[C@H]1[C@@H](C[C@H]3C)C1(C)C [PEP005, ingenol-3-angelate]
molecular weight of hyaluronan synthesized (dermal fibroblasts [1]): predominantly of high (>1.5×10^6 Da) and medium (<1.5×10^6-4×10^5 Da) molecular weight
hyaluronan synthesis (dermal fibroblasts [2]; PEP005 0.01-10 μg/ml, absence of TGF-β1, 24 h, compared to untreated controls): significant, stimulatory effect
hyaluronan synthesis (dermal fibroblasts [2]; PEP005 0.01-100 μg/ml, absence of TGF-β1, 72 h, compared to untreated controls): significant, stimulatory effect
hyaluronan synthesis (dermal fibroblasts [2]; PEP005 plus TGF-β1 (10 ng/ml), 24 h, compared to untreated controls and to PEP005 without TGF-β1): significant, synergistic effect
